# Assay results from US11718600B2, “1,2,3-triazole inhibitors of P97 AAA ATPase activity” (University of Pittsburgh—Of the Commonwealth System of …, priority 2018, dated 2023).
# Target: p97 (Homo sapiens, UniProt P55072)
# Test: BioMol Green ATPase assay
# Type: biochemical
# Settings: 200 μM ATP
# Source text: Biomol Green (Enzo) is a […] from a biochemical reaction. Because of its high sensitivity, the assay is suitable for monitoring enzyme activities at very early substrate conversions requiring very low amount of enzymes.
# The assay procedure used may be the same as in Zhang et al., “Altered cofactor regulation with disease-associated p97/VCP mutations,” Proc. Natl. Acad. Sci. USA, 112(14), E1705-E1714 (2015).
# The BioMol Green ATPase assay procedure used was that which was disclosed in Zhang, et al., “Altered cofactor regulation with disease-associated p97/VCP mutations,” Proc. Natl. Acad. Sci. USA, 112(14), E1705-E1714 (2015). Compounds also show activity in a cell-based assay such as the ubiquitin assay.
# Sequence of p97 (P55072 whole entry): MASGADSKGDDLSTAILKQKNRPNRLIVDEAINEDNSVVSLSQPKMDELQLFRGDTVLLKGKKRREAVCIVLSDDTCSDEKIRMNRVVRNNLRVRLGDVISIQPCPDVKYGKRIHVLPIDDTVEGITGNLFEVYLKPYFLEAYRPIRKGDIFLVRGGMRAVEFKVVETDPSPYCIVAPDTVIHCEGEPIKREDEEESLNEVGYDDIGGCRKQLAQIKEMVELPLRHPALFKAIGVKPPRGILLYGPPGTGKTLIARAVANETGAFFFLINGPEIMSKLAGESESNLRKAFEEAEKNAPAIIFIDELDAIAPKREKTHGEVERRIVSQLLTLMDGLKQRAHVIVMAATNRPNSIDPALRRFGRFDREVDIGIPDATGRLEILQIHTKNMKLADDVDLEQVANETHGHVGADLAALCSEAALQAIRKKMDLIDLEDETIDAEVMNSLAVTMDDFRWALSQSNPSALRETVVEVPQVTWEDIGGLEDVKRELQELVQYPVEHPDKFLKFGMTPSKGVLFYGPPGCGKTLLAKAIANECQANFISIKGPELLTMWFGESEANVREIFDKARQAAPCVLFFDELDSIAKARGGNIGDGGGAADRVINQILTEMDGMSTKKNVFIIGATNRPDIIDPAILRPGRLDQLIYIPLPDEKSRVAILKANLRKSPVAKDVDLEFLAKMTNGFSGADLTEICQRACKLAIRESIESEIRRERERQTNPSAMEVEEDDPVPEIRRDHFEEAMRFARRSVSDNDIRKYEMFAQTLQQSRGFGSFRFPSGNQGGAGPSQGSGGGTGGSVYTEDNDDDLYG
row,SMILES,IC50 [nM]
1,CC(C)(C)OC(=O)N1CCN(C(=O)Cn2ncc(-c3cc(F)c(OCc4nnc(SC5C=CCCC5)n4-c4cccnc4)cc3F)n2)CC1 (centres unmarked) [Entry 1],< 50
2,CC(C)(C)OC(=O)N1CCN(C(=O)Cn2cc(-c3cc(F)c(OCc4nnc(SC5C=CCCC5)n4-c4cccnc4)cc3F)nn2)CC1 (centres unmarked) [Entry 2],< 1000
3,[2H]C1([2H])C([2H])([2H])C([2H])([2H])C([2H])(Sc2nnc(COc3cc(F)c(-c4cnn(CC(=O)N5CCN(C(=O)OC(C)(C)C)CC5)n4)cc3F)n2-c2cccnc2)C1([2H])[2H] [Entry 3],< 50
4,[2H]C1([2H])C([2H])([2H])C([2H])([2H])C([2H])(Sc2nnc(COc3cc(F)c(-c4cn(CC(=O)N5CCN(C(=O)OC(C)(C)C)CC5)nn4)cc3F)n2-c2cccnc2)C1([2H])[2H] [Entry 4],< 1000
5,[2H]C1([2H])C([2H])([2H])C([2H])([2H])C([2H])(Sc2nnc(COc3cc(F)c(-c4cnn(CC(=O)N5CCNCC5)n4)cc3F)n2-c2cccnc2)C1([2H])[2H] [Entry 5],< 50
6,[2H]C1([2H])C([2H])([2H])C([2H])([2H])C([2H])(Sc2nnc(COc3cc(F)c(-c4cn(CC(=O)N5CCNCC5)nn4)cc3F)n2-c2cccnc2)C1([2H])[2H] [Entry 6],< 1000
7,CN1CCN(C(=O)Cn2ncc(-c3cc(F)c(OCc4nnc(SC5C=CCCC5)n4-c4cccnc4)cc3F)n2)CC1 (centres unmarked) [Entry 7],< 50
8,CC(C)(C)OC(=O)N1CCN(CCn2ncc(-c3cc(F)c(OCc4nnc(SC5C=CCCC5)n4-c4cccnc4)cc3F)n2)CC1 (centres unmarked) [Entry 8],< 100
9,OCCn1ncc(-c2cc(F)c(OCc3nnc(SC4C=CCCC4)n3-c3cccnc3)cc2F)n1 (centres unmarked) [Entry 9],< 50
10,CN1CCC(NC(=O)OCCn2ncc(-c3cc(F)c(OCc4nnc(SC5C=CCCC5)n4-c4cccnc4)cc3F)n2)CC1 (centres unmarked) [Entry 10],< 50
11,CNC(=O)OCCn1ncc(-c2cc(F)c(OCc3nnc(S[C@H]4C=CCCC4)n3-c3cccnc3)cc2F)n1 [Entry 11],< 50
12,CN1CCN(C(=O)OCCn2ncc(-c3cc(F)c(OCc4nnc(S[C@H]5C=CCCC5)n4-c4cccnc4)cc3F)n2)CC1 [Entry 12],< 100
13,CN1CCN(C(=O)Cn2ncc(-c3cc(F)c(OCc4nnc(S[C@H]5C=CCCC5)n4-c4cccnc4)cc3F)n2)CC1 [Entry 13],< 50
14,Fc1cc(-c2cnn(CCOCc3ccccc3)n2)c(F)cc1OCc1nnc(SC2C=CCCC2)n1-c1cccnc1 (centres unmarked) [Entry 14],< 1000
15,OCCn1ncc(-c2cc(F)c(OCc3nnc(S[C@H]4C=CCCC4)n3-c3cccnc3)cc2F)n1 [Entry 15],< 50
16,CC(C)(C)OC(=O)N1CCN(C(=O)Cn2ncc(-c3cc(F)c(OCc4nnc(S[C@@H]5C=CCCC5)n4-c4cccnc4)cc3F)n2)CC1 [Entry 16],< 1000
17,CC(C)(C)OC(=O)N1CCN(C(=O)Cn2ncc(-c3cc(F)c(OCc4nnc(S[C@H]5C=CCCC5)n4-c4cccnc4)cc3F)n2)CC1 [Entry 17],< 50
18,OCCn1cc(-c2cc(F)c(OCc3nnc(SC4C=CCCC4)n3-c3cccnc3)cc2F)nn1 (centres unmarked) [Entry 18],< 1000
19,CN1CCC(NC(=O)OCCn2cc(-c3cc(F)c(OCc4nnc(SC5C=CCCC5)n4-c4cccnc4)cc3F)nn2)CC1 (centres unmarked) [Entry 19],< 1000
20,COC(=O)Cn1ncc(-c2cc(F)c(OCc3nnc(SC4C=CCCC4)n3-c3cccnc3)cc2F)n1 (centres unmarked) [Entry 20],< 50
21,O=C(O)Cn1ncc(-c2cc(F)c(OCc3nnc(SC4C=CCCC4)n3-c3cccnc3)cc2F)n1 (centres unmarked) [Entry 21],< 100
22,CN1CCC(NC(=O)Cn2ncc(-c3cc(F)c(OCc4nnc(SC5C=CCCC5)n4-c4cccnc4)cc3F)n2)CC1 (centres unmarked) [Entry 22],< 50
23,COC(=O)Cn1ncc(-c2cc(F)c(OCc3nnc(S[C@H]4C=CCCC4)n3-c3cccnc3)cc2F)n1 [Entry 23],< 50
